Measured values as given in ChEMBL document CHEMBL1142268, “Histone deacetylase inhibitors: from bench to clinic” (J Med Chem, 2008).
pEC50, pIC50: −log10 of the molar value. Activity calls are given as the source filed them. The rule behind the calls is not given here.

Columns and labels:
[1] = target: Histone deacetylase 1 (Mus musculus, UniProt O09106)
Description: Inhibition of mouse liver HDAC1

[2] = system: HCT-116; test: Inhibition of human HCT116 cells; assay type: functional, cell-based
[3] = Bioavailability in […] dosed rat; assay type: ADME, organism-based; settings: in vivo
[4] = system: SW48; test: Antitumor activity against human SW48 cells xenografted in nude mouse model at 30 mg/kg, po; assay type: functional; settings: read-out: TGI
[5] = system: A549; test: Antitumor activity against human A549 cells xenografted in nude mouse model at 50 mg/kg, po; assay type: functional; settings: read-out: TGI
[6] = system: SW48; test: Antitumor activity against human SW48 cells xenografted in nude mouse model at 75 mg/kg, ip; assay type: functional; settings: route intraperitoneal, read-out: TGI
[7] = system: HCT-116; test: Antitumor activity against human HCT116 cells xenografted in nude mouse model at 75 mg/kg, ip; assay type: functional; settings: HCT-116, ip, route intraperitoneal, read-out: TGI
[8] = system: PANC-1; test: Antitumor activity against human PANC1 cells xenografted in nude mouse model at 50 mg/kg, po; assay type: functional; settings: read-out: TGI
[9] = system: A549; test: Antitumor activity against human A549 cells xenografted in nude mouse model at 40 mg/kg, ip; assay type: functional; settings: route intraperitoneal, read-out: TGI
[10] = system: SK-BR-3; test: Antiproliferative activity against human SKBR3 cells; assay type: functional, cell-based
[11] = system: A549; test: cells; settings: Homo sapiens
Description: Antiproliferative activity against human A549 cells

[12] = system: A549; test: Antitumor activity against human A549 cells xenografted in nude mouse model at 20 mg/kg, ip; assay type: functional; settings: route intraperitoneal, read-out: TGI
[13] = system: SW48; test: Antitumor activity against human SW48 cells xenografted in nude mouse model at 20 mg/kg, ip; assay type: functional; settings: route intraperitoneal, read-out: TGI
[14] = system: SW-620; test: Inhibition of human SW620 cells; assay type: functional, cell-based
[15] = system: MCF7; test: Inhibition of human MCF7 cells; assay type: functional, cell-based
[16] = system: HCT-116; test: Antitumor activity against human HCT116 cells xenografted in nude mouse model at 20 mg/kg, ip; assay type: functional; settings: HCT-116, ip, route intraperitoneal, read-out: TGI
[17] = system: MKN-45; test: Antiproliferative activity against human MKN45 cells; assay type: functional, cell-based
[18] = Inhibition of human CCD1059SK cells; assay type: functional, cell-based
[19] = system: HCT-116; test: Antitumor activity against human HCT116 cells xenografted in ip dosed nude mouse assessed as tumor volume inhibition; assay type: functional
[20] = system: COLO 205; test: Inhibition of human CoLo205 cells; assay type: functional
[21] = target: T1, Histone deacetylase 1 (Homo sapiens, UniProt Q13547); test: Inhibition of HDAC1
[22] = target: T2, Protein deacetylase HDAC6 (Homo sapiens, UniProt Q9UBN7)
T2 sequence (Q9UBN7 whole entry): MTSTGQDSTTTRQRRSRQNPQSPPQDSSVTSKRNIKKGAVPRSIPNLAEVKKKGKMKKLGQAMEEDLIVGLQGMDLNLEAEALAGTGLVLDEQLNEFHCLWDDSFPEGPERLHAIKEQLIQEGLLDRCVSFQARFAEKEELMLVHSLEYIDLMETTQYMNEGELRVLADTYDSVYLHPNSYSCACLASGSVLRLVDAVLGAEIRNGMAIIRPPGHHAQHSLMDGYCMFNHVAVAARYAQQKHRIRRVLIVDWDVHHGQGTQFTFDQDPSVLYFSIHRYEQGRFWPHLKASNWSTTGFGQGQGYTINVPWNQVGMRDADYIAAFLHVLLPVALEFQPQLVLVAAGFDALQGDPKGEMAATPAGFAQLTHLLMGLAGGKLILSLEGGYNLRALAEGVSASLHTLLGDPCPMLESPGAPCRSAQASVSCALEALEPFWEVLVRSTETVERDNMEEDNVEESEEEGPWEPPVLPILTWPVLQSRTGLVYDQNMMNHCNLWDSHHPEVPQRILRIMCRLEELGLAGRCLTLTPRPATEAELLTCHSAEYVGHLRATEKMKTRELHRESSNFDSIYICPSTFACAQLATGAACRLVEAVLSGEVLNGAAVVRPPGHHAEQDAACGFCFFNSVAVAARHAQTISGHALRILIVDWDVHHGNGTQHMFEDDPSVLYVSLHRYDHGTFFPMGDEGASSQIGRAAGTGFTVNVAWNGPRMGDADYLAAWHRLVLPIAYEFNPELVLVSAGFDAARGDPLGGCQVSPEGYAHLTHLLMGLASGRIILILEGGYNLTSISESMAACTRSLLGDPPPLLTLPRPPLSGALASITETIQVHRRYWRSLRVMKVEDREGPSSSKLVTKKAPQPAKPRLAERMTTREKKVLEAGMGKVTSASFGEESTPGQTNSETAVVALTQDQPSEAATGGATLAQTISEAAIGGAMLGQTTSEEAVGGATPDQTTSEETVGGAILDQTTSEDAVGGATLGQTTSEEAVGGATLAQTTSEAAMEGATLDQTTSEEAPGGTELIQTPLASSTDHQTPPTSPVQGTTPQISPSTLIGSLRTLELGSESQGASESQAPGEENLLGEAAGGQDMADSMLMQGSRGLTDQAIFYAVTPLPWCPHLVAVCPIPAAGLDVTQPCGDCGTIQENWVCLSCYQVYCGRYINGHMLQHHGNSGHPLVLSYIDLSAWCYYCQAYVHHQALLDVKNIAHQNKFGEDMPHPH

[23] = target: Histone deacetylase 3 (Homo sapiens, UniProt O15379)
[24] = target: Histone deacetylase 7 (Homo sapiens, UniProt Q8WUI4)
[25] = target: T3, Histone deacetylase 4 (Homo sapiens, UniProt P56524); test: Inhibition of HDAC4 at 50 uM
[26] = target: Histone deacetylase 5 (Homo sapiens, UniProt Q9UQL6)
[27] = target: T4, Histone deacetylase 8 (Homo sapiens, UniProt Q9BY41)
T4 sequence (Q9BY41 whole entry): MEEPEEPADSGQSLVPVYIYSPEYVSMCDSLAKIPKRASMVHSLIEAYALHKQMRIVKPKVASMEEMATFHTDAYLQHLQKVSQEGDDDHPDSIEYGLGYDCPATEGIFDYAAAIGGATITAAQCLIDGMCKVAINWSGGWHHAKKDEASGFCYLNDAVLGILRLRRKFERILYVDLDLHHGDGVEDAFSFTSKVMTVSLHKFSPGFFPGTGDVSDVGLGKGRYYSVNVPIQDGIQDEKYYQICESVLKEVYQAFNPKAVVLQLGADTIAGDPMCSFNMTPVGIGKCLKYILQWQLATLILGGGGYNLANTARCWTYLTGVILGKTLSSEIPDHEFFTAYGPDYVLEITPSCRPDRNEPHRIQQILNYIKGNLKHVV

[28] = target: Histone deacetylase 9 (Homo sapiens, UniProt Q9UKV0)
[29] = target: Histone deacetylase 7 (Homo sapiens) (UniProt Q8WUI4); test: Inhibition of HDAC7
[30] = system: HeLa; test: Inhibition of human HeLa cells; assay type: functional, cell-based
[31] = Growth inhibition of human renal epithelial cells; assay type: functional, cell-based; settings: Epithelial cell
[32] = target: T3, Histone deacetylase 4
[33] = target: Histone deacetylase 2 (Homo sapiens, UniProt Q92769)
[34] = Metabolic stability in human liver microsomes; assay type: ADME, Microsome
[35] = system: A2780; test: Inhibition of human A2780 cells; assay type: functional, cell-based
[36] = target: T1, Histone deacetylase 1; test: Inhibition of HDAC1 from human HeLa cells; assay type: cell-based
[37] = system: G-401; test: Inhibition of human G401 cells; assay type: functional, cell-based
[38] = system: U-937; test: Inhibition of human U937 cells; assay type: functional, cell-based
[39] = target: T1, Histone deacetylase 1
Description: Inhibition of human HDAC1

[40] = target: T1, Histone deacetylase 1; remark: listed apart in the source
[41] = target: T1, Histone deacetylase 1; remark: listed apart in the source
Description: Inhibition of human HDAC1 assessed as histone H4 acetylation in cell based assay

T1 sequence (Q13547 whole entry): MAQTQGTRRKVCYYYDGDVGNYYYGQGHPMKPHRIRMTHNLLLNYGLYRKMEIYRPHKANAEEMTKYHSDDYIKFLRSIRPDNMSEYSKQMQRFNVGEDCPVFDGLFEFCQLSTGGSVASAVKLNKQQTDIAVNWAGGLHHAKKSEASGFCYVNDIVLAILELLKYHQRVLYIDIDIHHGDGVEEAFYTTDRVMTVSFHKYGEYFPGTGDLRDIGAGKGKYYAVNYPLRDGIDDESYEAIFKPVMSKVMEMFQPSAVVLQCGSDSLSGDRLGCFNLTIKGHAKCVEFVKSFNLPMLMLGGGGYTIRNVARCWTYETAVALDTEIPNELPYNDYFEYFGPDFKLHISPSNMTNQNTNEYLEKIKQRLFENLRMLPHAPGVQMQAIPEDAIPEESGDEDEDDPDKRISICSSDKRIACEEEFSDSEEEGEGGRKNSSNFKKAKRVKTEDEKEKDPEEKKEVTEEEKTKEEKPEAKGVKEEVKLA
T3 sequence (P56524 whole entry): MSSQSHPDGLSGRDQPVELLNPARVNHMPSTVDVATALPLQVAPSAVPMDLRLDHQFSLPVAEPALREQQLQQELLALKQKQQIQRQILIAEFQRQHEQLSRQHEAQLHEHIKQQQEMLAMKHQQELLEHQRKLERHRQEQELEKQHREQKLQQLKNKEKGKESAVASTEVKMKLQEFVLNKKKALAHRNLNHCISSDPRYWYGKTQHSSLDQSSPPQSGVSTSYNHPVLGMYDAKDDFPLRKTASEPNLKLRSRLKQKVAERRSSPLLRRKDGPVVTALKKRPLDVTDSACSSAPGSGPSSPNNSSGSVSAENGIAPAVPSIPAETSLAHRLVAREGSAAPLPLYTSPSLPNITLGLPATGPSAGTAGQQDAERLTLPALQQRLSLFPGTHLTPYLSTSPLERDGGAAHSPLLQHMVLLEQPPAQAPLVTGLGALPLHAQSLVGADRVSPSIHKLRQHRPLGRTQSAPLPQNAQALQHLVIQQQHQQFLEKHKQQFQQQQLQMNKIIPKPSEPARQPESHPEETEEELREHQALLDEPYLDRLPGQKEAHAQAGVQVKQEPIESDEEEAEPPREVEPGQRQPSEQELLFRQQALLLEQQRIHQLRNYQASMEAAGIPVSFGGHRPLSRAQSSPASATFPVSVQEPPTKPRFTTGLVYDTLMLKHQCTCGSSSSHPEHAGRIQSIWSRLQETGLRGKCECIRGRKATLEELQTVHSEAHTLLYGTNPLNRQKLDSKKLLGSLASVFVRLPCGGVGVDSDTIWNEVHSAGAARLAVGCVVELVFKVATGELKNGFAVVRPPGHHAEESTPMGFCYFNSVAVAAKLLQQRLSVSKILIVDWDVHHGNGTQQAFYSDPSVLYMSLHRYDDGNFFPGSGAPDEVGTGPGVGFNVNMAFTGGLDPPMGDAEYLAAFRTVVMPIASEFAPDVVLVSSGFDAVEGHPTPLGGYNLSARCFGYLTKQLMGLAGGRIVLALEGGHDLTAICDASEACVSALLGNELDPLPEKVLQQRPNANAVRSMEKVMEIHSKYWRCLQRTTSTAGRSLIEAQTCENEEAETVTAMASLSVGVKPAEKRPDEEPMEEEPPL
Sequence of Histone deacetylase 3 (O15379 whole entry): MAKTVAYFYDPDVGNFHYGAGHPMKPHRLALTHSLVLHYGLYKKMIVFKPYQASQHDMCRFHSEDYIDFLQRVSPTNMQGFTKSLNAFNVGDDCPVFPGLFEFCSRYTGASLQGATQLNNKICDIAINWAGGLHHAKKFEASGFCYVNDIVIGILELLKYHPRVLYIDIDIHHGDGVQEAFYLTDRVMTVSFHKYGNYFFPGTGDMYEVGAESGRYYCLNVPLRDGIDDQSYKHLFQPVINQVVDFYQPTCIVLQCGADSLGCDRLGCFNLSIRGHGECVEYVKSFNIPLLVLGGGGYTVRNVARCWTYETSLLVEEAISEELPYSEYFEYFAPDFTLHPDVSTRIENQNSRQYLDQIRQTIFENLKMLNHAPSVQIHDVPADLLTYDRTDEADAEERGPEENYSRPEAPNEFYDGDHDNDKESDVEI
Sequence of Histone deacetylase 5 (Q9UQL6 whole entry): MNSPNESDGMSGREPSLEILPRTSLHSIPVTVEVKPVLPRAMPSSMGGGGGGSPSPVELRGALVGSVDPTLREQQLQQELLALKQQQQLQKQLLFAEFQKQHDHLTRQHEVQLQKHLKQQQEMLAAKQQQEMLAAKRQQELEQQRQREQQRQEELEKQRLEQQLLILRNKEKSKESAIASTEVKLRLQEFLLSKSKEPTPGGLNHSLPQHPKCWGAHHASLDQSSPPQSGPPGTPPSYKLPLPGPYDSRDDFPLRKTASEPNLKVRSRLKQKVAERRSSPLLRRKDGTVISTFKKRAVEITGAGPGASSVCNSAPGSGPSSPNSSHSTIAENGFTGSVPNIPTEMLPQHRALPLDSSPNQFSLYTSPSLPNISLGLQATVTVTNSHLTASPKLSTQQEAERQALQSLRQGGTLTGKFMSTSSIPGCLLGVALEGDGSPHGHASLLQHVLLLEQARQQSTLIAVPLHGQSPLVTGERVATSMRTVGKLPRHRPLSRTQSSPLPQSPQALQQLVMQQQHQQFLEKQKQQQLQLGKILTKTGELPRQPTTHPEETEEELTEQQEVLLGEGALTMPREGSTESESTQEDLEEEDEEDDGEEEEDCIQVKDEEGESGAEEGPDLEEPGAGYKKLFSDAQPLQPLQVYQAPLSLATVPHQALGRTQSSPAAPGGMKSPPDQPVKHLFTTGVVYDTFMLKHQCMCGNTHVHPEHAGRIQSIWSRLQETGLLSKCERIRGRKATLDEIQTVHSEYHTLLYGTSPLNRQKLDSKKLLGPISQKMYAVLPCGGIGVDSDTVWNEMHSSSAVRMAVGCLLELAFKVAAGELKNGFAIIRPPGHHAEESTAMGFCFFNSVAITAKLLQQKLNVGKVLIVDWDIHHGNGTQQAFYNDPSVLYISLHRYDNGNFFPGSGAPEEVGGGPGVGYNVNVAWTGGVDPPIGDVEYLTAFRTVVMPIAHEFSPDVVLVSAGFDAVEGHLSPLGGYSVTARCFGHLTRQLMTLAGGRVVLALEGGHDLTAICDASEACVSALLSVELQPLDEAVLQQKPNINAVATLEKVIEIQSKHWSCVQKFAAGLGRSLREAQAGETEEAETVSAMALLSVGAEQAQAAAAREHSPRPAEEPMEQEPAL
Sequence of Histone deacetylase 7 (Q8WUI4 whole entry): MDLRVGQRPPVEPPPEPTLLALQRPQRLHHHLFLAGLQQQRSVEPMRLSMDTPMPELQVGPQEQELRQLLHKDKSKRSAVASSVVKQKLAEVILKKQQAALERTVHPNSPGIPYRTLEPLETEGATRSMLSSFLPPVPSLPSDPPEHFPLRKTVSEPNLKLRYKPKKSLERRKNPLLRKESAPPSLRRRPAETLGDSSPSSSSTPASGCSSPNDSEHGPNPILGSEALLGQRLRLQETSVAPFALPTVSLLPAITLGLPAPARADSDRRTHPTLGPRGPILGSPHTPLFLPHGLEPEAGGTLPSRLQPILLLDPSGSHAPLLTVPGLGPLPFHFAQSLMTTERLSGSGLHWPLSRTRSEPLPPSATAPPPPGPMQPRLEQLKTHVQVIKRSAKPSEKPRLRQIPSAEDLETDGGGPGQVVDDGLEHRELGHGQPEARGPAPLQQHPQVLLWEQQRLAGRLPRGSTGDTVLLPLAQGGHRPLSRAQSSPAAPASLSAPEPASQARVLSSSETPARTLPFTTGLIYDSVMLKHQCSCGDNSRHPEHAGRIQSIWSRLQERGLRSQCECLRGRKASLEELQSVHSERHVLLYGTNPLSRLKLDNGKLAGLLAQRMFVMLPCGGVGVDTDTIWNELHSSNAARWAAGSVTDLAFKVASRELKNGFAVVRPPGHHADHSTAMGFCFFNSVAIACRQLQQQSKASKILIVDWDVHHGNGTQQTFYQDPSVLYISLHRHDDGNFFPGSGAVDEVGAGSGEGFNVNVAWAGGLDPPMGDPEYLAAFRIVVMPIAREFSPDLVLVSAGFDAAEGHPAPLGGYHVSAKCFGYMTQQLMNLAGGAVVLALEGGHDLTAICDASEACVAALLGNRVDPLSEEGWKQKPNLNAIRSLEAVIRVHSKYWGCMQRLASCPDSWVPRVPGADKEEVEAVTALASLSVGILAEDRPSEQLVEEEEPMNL
Sequence of Histone deacetylase 7 (Homo sapiens) (Q8WUI4 whole entry): as above
Sequence of Histone deacetylase 1 (Mus musculus, UniProt O09106) (O09106 whole entry): as the sequence (Q13547 whole entry) above, with R8K, D399E, E424D counted along it
Sequence of Histone deacetylase 2 (Q92769 whole entry): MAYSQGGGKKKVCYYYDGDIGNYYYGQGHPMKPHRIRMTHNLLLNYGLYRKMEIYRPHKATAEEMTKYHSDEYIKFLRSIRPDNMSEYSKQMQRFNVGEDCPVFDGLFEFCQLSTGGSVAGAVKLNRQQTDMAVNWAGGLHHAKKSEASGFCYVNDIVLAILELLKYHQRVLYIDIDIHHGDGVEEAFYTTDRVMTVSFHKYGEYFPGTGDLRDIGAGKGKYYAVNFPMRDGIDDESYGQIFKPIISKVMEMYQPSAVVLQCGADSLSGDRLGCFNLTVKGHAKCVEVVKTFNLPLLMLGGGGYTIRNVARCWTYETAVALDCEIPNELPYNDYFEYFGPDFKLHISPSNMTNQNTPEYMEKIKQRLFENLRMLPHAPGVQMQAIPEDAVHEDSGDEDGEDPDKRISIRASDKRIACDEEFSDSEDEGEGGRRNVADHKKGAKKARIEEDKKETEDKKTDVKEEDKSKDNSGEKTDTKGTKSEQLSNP

In the case of `CC(C)(c1ccccc1)c1cc(=O)[nH]c(SCCCCCC(=O)NO)n1`, the pIC50 [1] was 6.92.

`COc1ccc(NCc2ccc(C(=O)Nc3ccccc3N)cc2)cc1OC` gave a pIC50 [2] of 6.40, a bioavailability [3] of 20% and an inhibition in vivo at 30 mg/kg [4] of 78%. For the same compound, the inhibition in vivo at 50 mg/kg [5] was 67%, the inhibition in vivo at 75 mg/kg [6] was 100% and the inhibition in vivo at 75 mg/kg [7] was 86%. For the same compound, the inhibition in vivo at 50 mg/kg [8] was 84% and the inhibition in vivo at 40 mg/kg [9] was 73%.

`Nc1ccccc1NC(=O)c1ccc(CNC(=O)OCc2cccnc2)cc1` [ENTINOSTAT] showed a pIC50 [2] of 6.30, a pIC50 [10] of 6.06 and a pIC50 [11] of 5.45. For the same compound, the inhibition in vivo at 20 mg/kg [12] was 46%, the inhibition in vivo at 20 mg/kg [13] was 68% and the pIC50 [14] was 5.49. The pIC50 [15] was 5.37, the inhibition in vivo at 20 mg/kg [16] was 56% and the pIC50 [17] was 5.38. For the same compound, the pIC50 [18] was 4.19.

`COc1cc(NCc2ccc(/C=C/C(=O)Nc3cc(-c4cccs4)ccc3N)cc2)cc(OC)c1OC` gave an Inhibition [19] of 78%.

With `CC(C)(C)NCc1c(-c2ccccc2)nc2cc(/C=C/C(=O)NO)ccn12` the GI50 [20] was 260 nM.

With `S=c1[nH]cc(-c2ccncc2)[nH]1` the Activity [21] was “inactive”.

For `CC(C)[C@H]1NC(=O)[C@@H](C)[C@@H](C/C=C\CCC(=O)O)NC(=O)[C@@H](Cc2ccccc2)NC(=O)[C@@H](C)NC1=O` [AZUMAMIDE E], the pIC50 [22] was 4.92, the pIC50 [23] was 7.10 and the pIC50 [24] was 5.01. It also gave an inhibition [25] of 30%, a pIC50 [26] of 5.00 and a pIC50 [27] of 5.43. For the same compound, the pIC50 [28] was 4.55.

In the case of `CC(=O)CCCCC[C@H](NC1CCCCN1C)C(=O)Nc1nc(-c2ccccc2)cs1` (stereo partly specified), the pIC50 [2] was 6.17, the Activity [29] was “inactive” and the pIC50 [30] was 6.37. The pIC50 [31] was under 4.70, the pIC50 [22] was 7.89 and the AC50 [32] was “Not Active”. It also gave a pIC50 [11] of 5.70, a pIC50 [33] of 6.77 and a pIC50 [23] of 7.85. It also gave a microsomal CLint [34] of 54 µL/min/mg, a pIC50 [35] of 5.77 and a pIC50 [36] of 6.37. The pIC50 [15] was 6.64, the pIC50 [37] was 6.60 and the pIC50 [38] was 6.35. It also gave a pIC50 [26] of 5.72, a pIC50 [39] of 7.26 and a pIC50 [40] of 7.26. It also gave a pIC50 [27] of 5.52.

Compound `Nc1ccccc1NC(=O)CCCCCCNC(=O)c1ccc(-c2ccccc2)nc1` has a pEC50 [41] of 5.30, a pIC50 [2] of 5.30 and a pIC50 [39] of 5.52.
